The subject of the experiment is HCT116 colorectal cancer cells. The experiment can be described thus: Cisplatin sensitization assay (96 h cell viability MTS).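 Note: compound concentration needed to lower the Cisplatin-alone IC50 by a set fold.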 Type of experiment: cell-based. The settings on record: 96 h MTS, compound plus Cisplatin. Summed up: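 Cisplatin and compound are dosed at the same time, both serially diluted 2-fold from 10 μM final across a full matrix. Plates sit at 37° C in 5% CO2 for 96 h before MTS addition.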

`Nc1nn2cc(F)cnc2c1C(=O)Nc1cnccc1N1CCN(C2CCOCC2)CC1` [I-N-11, 2-amino-6-fluoro-N-(4-(4-(tetrahydro-2H-pyran-4-yl)piperazin-1-yl)pyridin-3-yl)pyrazolo[1,5-a]pyrimidine-3-carboxamide]: the “Cisplatin Sensitization Assay” value is given as “++ (Compounds with a Cisplatin sensitization value >0.02 μM but <0.2 μM are marked with “++.”)”. The result for `CC(C)(O)CN1CCN(c2c(F)cncc2NC(=O)c2c(N)nn3cc(F)cnc23)CC1` [I-N-139, 2-amino-6-fluoro-N-(5-fluoro-4-(4-(2-hydroxy-2-methylpropyl)piperazin-1-yl)pyridin-3-yl)pyrazolo[1,5-a]pyrimidine-3-carboxamide] reads “+++ (Compounds with a Cisplatin sensitization value of <0.02 μM are marked with “+++.”)”; that for `CN1CCN(C(=O)C2CCN(c3c(F)cncc3NC(=O)c3c(N)nn4cc(F)cnc34)CC2)C2CC21` (stereo not shown) [I-G-65, 2-amino-6-fluoro-N-(5-fluoro-4-(4-(5-methyl-2,5-diazabicyclo[4.1.0]heptane-2-carbonyl)piperidin-1-yl)pyridin-3-yl)pyrazolo[1,5-a]pyrimidine-3-carboxamide], “+++ (Compounds with a Cisplatin sensitization value of <0.02 μM are marked with “+++.”)”. The result for `Nc1nn2cc(F)cnc2c1C(=O)Nc1cncc(F)c1N1CCC(C(=O)N2CCNC3CC32)CC1` (stereo not shown) [I-G-62, N-(4-(4-(2,5-diazabicyclo[4.1.0]heptane-2-carbonyl)piperidin-1-yl)-5-fluoropyridin-3-yl)-2-amino-6-fluoropyrazolo[1,5-a]pyrimidine-3-carboxamide] reads “+++ (Compounds with a Cisplatin sensitization value of <0.02 μM are marked with “+++.”)”. The value for `Nc1nn2cc(F)cnc2c1C(=O)Nc1cnccc1OC1COC1` [I-O-92, 2-amino-6-fluoro-N-(4-(oxetan-3-yloxy)pyridin-3-yl)pyrazolo[1,5-a]pyrimidine-3-carboxamide] was “+++ (Compounds with a Cisplatin sensitization value of <0.02 μM are marked with “+++.”)”; that for `CO[C@H]1CCN(C(=O)C2CCN(c3c(F)cncc3NC(=O)c3c(N)nn4cc(F)cnc34)CC2)C1` [I-G-99, (S)-2-amino-6-fluoro-N-(5-fluoro-4-(4-(3-methoxypyrrolidine-1-carbonyl)piperidin-1-yl)pyridin-3-yl)pyrazolo[1,5-a]pyrimidine-3-carboxamide] was “+++ (Compounds with a Cisplatin sensitization value of <0.02 μM are marked with “+++.”)”; that for `CN1CCCCC1C(=O)N1CCN(c2c(F)cncc2NC(=O)c2c(N)nn3cc(F)cnc23)CC1` (stereo not shown) [I-N-214, 2-amino-6-fluoro-N-(5-fluoro-4-(4-(1-methylpiperidine-2-carbonyl)piperazin-1-yl)pyridin-3-yl)pyrazolo[1,5-a]pyrimidine-3-carboxamide] was “++ (Compounds with a Cisplatin sensitization value >0.02 μM but <0.2 μM are marked with “++.”)”. `Nc1nn2cc(F)cnc2c1C(=O)Nc1cncc(F)c1N1CCN2C(=O)CC[C@@H]2C1` [I-N-182, (R)-2-amino-6-fluoro-N-(5-fluoro-4-(6-oxohexahydropyrrolo[1,2-a]pyrazin-2(1H)-yl)pyridin-3-yl)pyrazolo[1,5-a]pyrimidine-3-carboxamide]: the “Cisplatin Sensitization Assay” value is “++ (Compounds with a Cisplatin sensitization value >0.02 μM but <0.2 μM are marked with “++.”)”. The value for `CS(=O)(=O)C1CCN(c2ccncc2NC(=O)c2c(N)nn3cc(F)cnc23)CC1` [I-N-190, 2-amino-6-fluoro-N-(4-(4-(methylsulfonyl)piperidin-1-yl)pyridin-3-yl)pyrazolo[1,5-a]pyrimidine-3-carboxamide] was “+++ (Compounds with a Cisplatin sensitization value of <0.02 μM are marked with “+++.”)”. The value for `CC(=O)N1CCC2(CCN(c3ccncc3NC(=O)c3c(N)nn4cc(F)cnc34)CC2)C1` [I-N-257, N-(4-(2-acetyl-2,8-diazaspiro[4.5]decan-8-yl)pyridin-3-yl)-2-amino-6-fluoropyrazolo[1,5-a]pyrimidine-3-carboxamide] was “+++ (Compounds with a Cisplatin sensitization value of <0.02 μM are marked with “+++.”)”; that for `COCC1CCN(c2ccncc2NC(=O)c2c(N)nn3cc(F)cnc23)CC1` [I-N-282, 2-amino-6-fluoro-N-(4-(4-(methoxymethyl)piperidin-1-yl)pyridin-3-yl)pyrazolo[1,5-a]pyrimidine-3-carboxamide] was “+++ (Compounds with a Cisplatin sensitization value of <0.02 μM are marked with “+++.”)”.

On to `Nc1nn2cc(Cl)cnc2c1C(=O)Nc1cnccc1N1CCN2CCC[C@@H]2C1` [I-N-65, (R)-2-amino-6-chloro-N-(4-(hexahydropyrrolo[1,2-a]pyrazin-2(1H)-yl)pyridin-3-yl)pyrazolo[1,5-a]pyrimidine-3-carboxamide], for which the “Cisplatin Sensitization Assay” value is listed as “+ (Compounds with a Cisplatin sensitization value >0.2 μM but <5 μM are marked with “+.”)”. Turning to `Cc1ncccc1-c1ccncc1NC(=O)c1c(N)nn2cc(F)cnc12` [I-C-20, 2-amino-6-fluoro-N-(2-methyl-[3,4′-bipyridin]-3′-yl)pyrazolo[1,5-a]pyrimidine-3-carboxamide], the “Cisplatin Sensitization Assay” value is “+++ (Compounds with a Cisplatin sensitization value of <0.02 μM are marked with “+++.”)”. The result for `Cc1nc(O[C@@H]2CCN(C)C2)ccc1-c1ccncc1NC(=O)c1c(N)nn2cc(F)cnc12` [I-C-41, (R)-2-amino-6-fluoro-N-(2-methyl-6-((1-methylpyrrolidin-3-yl)oxy)-[3,4′-bipyridin]-3′-yl)pyrazolo[1,5-a]pyrimidine-3-carboxamide] reads “+++ (Compounds with a Cisplatin sensitization value of <0.02 μM are marked with “+++.”)”. The result for `Cc1ncc(-c2ccncc2NC(=O)c2c(N)nn3cc(F)cnc23)n1C` [I-C-77, 2-amino-N-(4-(1,2-dimethyl-1H-imidazol-5-yl)pyridin-3-yl)-6-fluoropyrazolo[1,5-a]pyrimidine-3-carboxamide] reads “+++ (Compounds with a Cisplatin sensitization value of <0.02 μM are marked with “+++.”)”. In the case of `N#CCc1cnc2c(C(=O)Nc3cnccc3OC3CCCCC3)c(N)nn2c1` [I-O-39, 2-amino-6-(cyanomethyl)-N-(4-(cyclohexyloxy)pyridin-3-yl)pyrazolo[1,5-a]pyrimidine-3-carboxamide], the “Cisplatin Sensitization Assay” value is given as “+++ (Compounds with a Cisplatin sensitization value of <0.02 μM are marked with “+++.”)”. The result for `Nc1nn2cc(F)cnc2c1C(=O)Nc1cncc(F)c1N1CCC(S(=O)(=O)N2CCC2)CC1` [I-N-169, 2-amino-N-(4-(4-(azetidin-1-ylsulfonyl)piperidin-1-yl)-5-fluoropyridin-3-yl)-6-fluoropyrazolo[1,5-a]pyrimidine-3-carboxamide] reads “+++ (Compounds with a Cisplatin sensitization value of <0.02 μM are marked with “+++.”)”. The value for `Nc1nn2cc(F)cnc2c1C(=O)Nc1cncc(F)c1N1CCC(C(=O)N2CCC(N3CCC3)CC2)CC1` [I-G-68, 2-amino-N-(4-(4-(4-(azetidin-1-yl)piperidine-1-carbonyl)piperidin-1-yl)-5-fluoropyridin-3-yl)-6-fluoropyrazolo[1,5-a]pyrimidine-3-carboxamide] was “+++ (Compounds with a Cisplatin sensitization value of <0.02 μM are marked with “+++.”)”. The value for `Nc1nn2cc(Cl)cnc2c1C(=O)Nc1cnccc1Oc1cccnc1` [I-O-70, 2-amino-6-chloro-N-(4-(pyridin-3-yloxy)pyridin-3-yl)pyrazolo[1,5-a]pyrimidine-3-carboxamide] was “+++ (Compounds with a Cisplatin sensitization value of <0.02 μM are marked with “+++.”)”; that for `COCCN1CCN(c2c(F)cncc2NC(=O)c2c(N)nn3cc(F)cnc23)CC1` [I-N-127, 2-amino-6-fluoro-N-(5-fluoro-4-(4-(2-methoxyethyl)piperazin-1-yl)pyridin-3-yl)pyrazolo[1,5-a]pyrimidine-3-carboxamide] was “+++ (Compounds with a Cisplatin sensitization value of <0.02 μM are marked with “+++.”)”; that for `COC1CN(C(=O)C2CCN(c3c(F)cncc3NC(=O)c3c(N)nn4cc(F)cnc34)CC2)C1` [I-G-21, 2-amino-6-fluoro-N-(5-fluoro-4-(4-(3-methoxyazetidine-1-carbonyl)piperidin-1-yl)pyridin-3-yl)pyrazolo[1,5-a]pyrimidine-3-carboxamide] was “+++ (Compounds with a Cisplatin sensitization value of <0.02 μM are marked with “+++.”)”. With `CC(=O)N1CCCC12CCN(c1ccncc1NC(=O)c1c(N)nn3cc(F)cnc13)CC2` [I-N-262, N-(4-(1-acetyl-1,8-diazaspiro[4.5]decan-8-yl)pyridin-3-yl)-2-amino-6-fluoropyrazolo[1,5-a]pyrimidine-3-carboxamide], the “Cisplatin Sensitization Assay” value was “+++ (Compounds with a Cisplatin sensitization value of <0.02 μM are marked with “+++.”)”. Regarding `COC(=O)C1CCN(c2ccncc2NC(=O)c2c(N)nn3cc(Cl)cnc23)CC1` [I-N-74, methyl-1-(3-(2-amino-6-chloropyrazolo[1,5-a]pyrimidine-3-carboxamido)pyridin-4-yl)piperidine-4-carboxylate], the “Cisplatin Sensitization Assay” value is on record as “+++ (Compounds with a Cisplatin sensitization value of <0.02 μM are marked with “+++.”)”.

Consider `CN(C)CCNC(=O)C1CCN(c2c(F)cncc2NC(=O)c2c(N)nn3cc(F)cnc23)CC1` [I-G-30, 2-amino-N-(4-(4-((2-(dimethylamino)ethyl)carbamoyl)piperidin-1-yl)-5-fluoropyridin-3-yl)-6-fluoropyrazolo[1,5-a]pyrimidine-3-carboxamide], for which the “Cisplatin Sensitization Assay” value is reported as “+++ (Compounds with a Cisplatin sensitization value of <0.02 μM are marked with “+++.”)”.

As for `Cn1cc(-c2ccncc2NC(=O)c2c(N)nn3cc(F)cnc23)ccc1=O` [I-C-59, 2-amino-6-fluoro-N-(1-methyl-6-oxo-1,6-dihydro-[3,4′-bipyridin]-3′-yl)pyrazolo[1,5-a]pyrimidine-3-carboxamide], the “Cisplatin Sensitization Assay” value is given as “++ (Compounds with a Cisplatin sensitization value >0.02 μM but <0.2 μM are marked with “++.”)”.

The values above are taken from patent US10787452B2 (Vertex Pharmaceuticals Incorporated, priority 2012, dated 2020).
